These are literature values, as cited in patent US8536169B2, “Compounds” (Glaxo Group Limited, priority 2008, dated 2013).

Series [1] has as its system neutrophils.
The test system of series [2] is neutrophils. The source holds these as a separate data set.
For a further series, the system named is Class I PI3-kinases. Particulars: read-out: IC50 against each of the various Class I PI3-kinases.
For series [3], the system named is neutrophils. As to conditions: treatment of neutrophils; Thelen et al. 1994.

With `O=c1cc(N2CCOCC2)oc2c(-c3ccccc3)cccc12` [LY294002], the “inhibitory activity on phospholipases” value with phospholipases is “some inhibitory activity”. In the series with neutrophils [1], the neutrophil migration result is on record as “block”. Besides, the superoxide release result in the series on neutrophils [2] was “block”.
A word on the IC50: it is the midpoint of a concentration-inhibition curve. On to wortmannin, for which the IC50 in the series on Class I PI3-kinases was 1 to 10 nM. For the same compound, the “fMLP-induced respiratory burst response” value in the series on neutrophils [3] is reported as “prevents”. In the series on neutrophils [1], the neutrophil migration entry was “block”. Also, the superoxide release result in the series on neutrophils [2] is reported as “block”.
